According to publication PMC5161367, “Discovery of Novel Small Molecule Inhibitors of VEGF Expression in Tumor Cells Using a Cell-Based High Throughput Screening Platform” (PLoS ONE, 2016):
Where two headings read alike, the source gives them in different places.

Legend:
[1] = test system: hVEGF; assay: HT1080 xenograft pharmacodynamic model, intratumor hVEGF; assay type: in vivo, mouse (human tumor xenograft); settings: twice per day for 7 days
Procedure: Log phase growing tumor cells (5–10 x 10^6 cells/mouse, depending on the cell line) were implanted subcutaneously in athymic nude mice. When the average tumor size reached the indicated size, mice were randomly divided into groups and administered vehicle (5% DMSO/ 95% PEG-300) or test compounds by oral gavage. Tumor volumes were measured twice per week using digital calipers and body weights once per week. Tumor volume was determined according to the formula: L x (W)^2/2, where L is the longest dimension and W is the shortest dimension.
At the end of experiments, the tumors were excised from mice and homogenized on ice using a Powergen homogenizer fitted with Omni-Tip disposable/reusable probes (both from Fisher Scientific) in Tris-HCl buffer containing a cocktail of proteinase inhibitors. Intra-tumor human VEGF levels, as well as levels of other growth factors or proteins, were subsequently measured using commercially available ELISA kits (R&D Systems). Protein concentrations of the homogenates were determined using the Bradford protein assay (Bio-Rad) and intratumor growth factor levels were normalized to the total protein concentration.
Among the VEGF UTR-selective compounds identified, PTC-858 is a potent hit with adequate pharmaceutical properties (data not shown). These pharmaceutical properties enabled the testing of this compound in a human xenograft pharmacodynamic model in mice to measure modulation of intratumor VEGF levels. Established human HT1080 fibrosarcoma tumors grown as a xenograft in nude mice were treated with PTC-858 orally at a dose of 200 mg/kg, twice per day for 7 days. […] In addition, tumor growth was reduced by 25% after only 7 days of treatment.

[2] = test system: VEGF 5'- and 3'-UTR luciferase reporter; assay: VEGF GEMS luciferase reporter (B9 cells, VEGF UTRs) vs control reporter (B12 cells); assay type: cell-based, human
Procedure: Luciferase assays were conducted using the Bright-Glo assay (Promega, Madison, WI), following the manufacturer’s instructions. The plates were incubated for 5 minutes at room temperature with gentle shaking before determining the level of luciferase activity. For assays done in 96-well plates, luciferase activity was monitored using a Topcount microplate reader (Perkin Elmer, USA). For HTS and assays done in 384-well plates, luciferase activity was determined using a ViewLux microplate reader (Perkin Elmer, USA).
A high throughput screen (HTS) was performed with a stable cell line designated B9 that was generated by transfecting the VEGF GEMS™ vector (Fig 1a) into HEK293 cells. Log phase growing B9 cells were trypsinized and re-suspended in growth medium containing 1x penicillin and streptomycin (Invitrogen) to form a single-cell suspension. Cell counts were determined using a hemocytometer, with cell viability greater than 98% for all assays. B9 cells were seeded (10,000 cells per well) in 384-well plates and incubated with test compound at a final concentration of 7.5 μM in duplicate in a 40 μL reaction. The final concentration of DMSO was 0.5%. A serial dilution (0.078 to 20 μM) of puromycin was included in each plate as positive control for the nonspecific inhibition of translation. After incubation for 20 hours at 37°C, 5% CO2, 20 μL of Bright-Glo substrate (Promega) were added to each well. Plates were incubated for 5 minutes at room temperature with gentle shaking. Firefly luciferase luminescence was measured on the ViewLux (PerkinElmer). Data were loaded into ActivityBase (IDBS) for analysis. The HTS plate configuration is shown in S1 Fig. The threshold for hits was set at mean + 3x SD (standard deviation). Statistical robustness was assessed by Z’-factor, defined as 1-((3 x (SDblank-control + SDDMSO-control)/(Meanblank-control + MeanDMSO-control)), where the blank control represents assay background and the DMSO control represents total signal from the DMSO treated samples.
To address the possibility that the compounds identified in the screen function by modulating general transcription processes rather than targeting processes regulated by the 5’- and/or 3’-UTRs of VEGF mRNA, we generated an additional cell line, designated as B12 that harbors the luciferase reporter flanked with control UTRs from the plasmid pCDNA3.1 vector instead of those from VEGF mRNA. Compounds that reduce luciferase activity in both cell lines are considered to be general inhibitors of transcription or translation. Therefore, those compounds that inhibit luciferase expression in B9 but not in B12 cells act through the 5’- and/or 3’-UTRs of the VEGF transcript. A subset of the compounds selective for the VEGF UTRs was identified.

[3] = Cytotoxicity, CellTiter-Glo, HeLa cells; assay type: cell-based; settings: human
Procedure: The cytotoxicity of compounds was determined in peripheral blood mononuclear cells (PBMCs) and primary human foreskin fibroblasts, both purchased frozen from AllCells, Inc, CA. Cells were incubated with test compound at various concentrations in triplicate for a period of 3 days in 96-well plates. The cytotoxicity or inhibition of cell proliferation was determined using a standard CellTiter-Glo® Luminescent Cell Viability Assay (Promega, Madison, WI) that measures total cellular adenosine triphosphate (ATP) concentration as a function of cell viability. In addition, cytotoxicity assays were also performed in HeLa cells in parallel with VEGF ELISA to ensure that the inhibition of VEGF production in HeLa cells was not due to cytotoxicity.
(§1) The IC50 values for compounds that inhibited VEGF production were determined next. A seven-point dose-response analysis was performed for each of the 137 compounds. In parallel, a dose-response cytotoxicity assay was performed to determine the CC50 (the concentration resulting in 50% cellular growth inhibition or cytotoxicity) under the same conditions as VEGF ELISA to determine whether hypoxia-induced VEGF inhibition was due to cytotoxicity.

[4] = test system: VEGF; assay: VEGF ELISA, hypoxia-induced VEGF production in HeLa cells; assay type: cell-based; settings: Homo sapiens; for IC50: HeLa cells under hypoxia, read-out: IC50, inhibition of hypoxia induced VEGF production (VEGF ELISA)
Procedure: Cells were treated with vehicle control (0.5% DMSO) or compounds at the indicated concentration for 48 hours, and specific proteins in conditioned medium were quantified using commercially available ELISA kits (R&D Systems) according to the manufacturer’s recommendations. VEGF was quantified in HeLa cells under hypoxia (1% oxygen); Tumor necrosis factor alpha (TNFα) was quantified in CEM cells stimulated with 1 μg/mL interleukin-1 beta (Sigma); erythropoietin (EPO) was quantified in HepB3 cells under hypoxic conditions (1% oxygen); and granulocyte colony-stimulating factor (G-CSF), basic fibroblast growth factor (FGF-2) and insulin-like growth factor 1 (IGF-1) were quantified without induction in HT1080 cells, HeLa cells and HepG2 cells, respectively.
A sigmoid dose-response with variable slope regression curve was generated for each compound. The maximal and minimal inhibition values were set at 100% and 0%, respectively. IC50 and CC50 values were automatically calculated after curve fitting by the software.
Hits from the HTS were then evaluated for their ability to modulate hypoxia-inducible endogenous VEGF expression. HeLa cells were cultured under hypoxic conditions (1% O2, 5% CO2, balanced with nitrogen) in the presence or absence of compound at a concentration of 7.5 μM in duplicate. VEGF protein levels in the conditioned medium were quantified by ELISA. […] Compounds that reduced endogenous hypoxia-induced VEGF by 50% or more at a single concentration of 7.5 μM were further evaluated.
as §1

Row | SMILES | effect on intratumor VEGF in HT1080 tumors ([1]; 50 mg/kg, oral) | VEGF UTR specificity [2] | CC50 at 48 hr ([3]; 48 hr) [nM] | IC50 [4] [nM] | EC50 ([4]; HeLa cells, read-out: HeLa VEGF ELISA/SAR EC50) [nM] | EC90 ([4]; HeLa cells, read-out: HeLa VEGF ELISA/SAR EC90) [nM] | change of intratumor human VEGF protein levels vs vehicle ([1]; HT1080 xenograft, 200 mg/kg orally) | intratumor hVEGF ([1]; HT1080 xenograft, 200 mg/kg, oral, mean +/- SD, n = 10) | selectivity, VEGF reporter (B9) vs control reporter B12 cells ([2]; HEK293 stable luciferase reporter lines) | CC50 at 72 hours ([3]; 72 hours, CellTiter-Glo) [nM] | selectivity ratio ([3]; CC50 vs VEGF ELISA IC50, read-out: selective index (CC50/IC50)) | EC50 ([4]; HeLa cells under hypoxia (1% oxygen), 48 hours, read-out: ELISA EC50, VEGF) [nM]
1 | COc1ccc(C2c3[nH]c4ccc(Br)cc4c3CC3C(=O)N(C4CCCCC4)C(=S)N32)cc1.O=C(O)C(F)(F)F (stereo not shown) [PTC-510, 9-bromo-2-cyclohexyl-5-(4-methoxyphenyl)-3-thioxo-2,3,5,6,11,11a-hexahydro-1H-imidazo[1’,5’:1,6]pyrido[3,4-b]indol-1-one trifluoroacetate] | selectively inhibited production of intratumor VEGF | yes | 200 | ~6 | 6 | 50 | – | – | – | – | – | –
2 | Brc1ccc2[nH]c3c(c2c1)CCCC3n1cccc1 (stereo not shown) [PTC-858, 6-bromo-1-(1H-pyrrol-1-yl)-2,3,4,9-tetrahydro-1H-carbazole] | – | – | – | 7.5 | – | – | significant reduction of intratumor human VEGF protein levels | 127.5 ± 108.6 pg/mg total tumor proteins | greater than 2 log | 1700 | > 200 | 13 ± 20
